Measurements: US3937809A, “Addition compound of a nucleotide and an amino acid and the use thereof in protection against actinic radiation” (priority 1974, dated 1976)
≈ marks a conversion by molar mass, not a printed value.

What was measured:
[1] = UV absorption in % at 300, 280 and 240 nm (Table 2); format: physicochemical
From the text: The following Table illustrates the ultraviolet absorption characteristics at wave lengths of 300 nm, 280 nm, and 240 nm for the compounds of the invention, as well as other known compounds which have been used in the past as sun protective agents.

[2] = Solubility in water at 20°C (Table 3); format: physicochemical
[3] = background statement; cited from earlier work
[4] = UV spectrum and extinction coefficients in water (Table I); format: physicochemical
[5] = pH of solution (Table I); format: physicochemical; conditions: c=0.005
From the text: The following Table 1 lists additional compounds of the invention along with their physical properties.
Molecular Brutto N(%) pH UV- Extinction coefficients

Molecule | UV Absorption in %, 240 nm [1] | UV Absorption in %, 280 nm [1] | UV Absorption in %, 300 nm [1] | further results
Nc1ccc(C(=O)O)c(O)c1 [4-Aminosalicylic acid] | 98.5% | 99% | 99% | 
Nc1cc(C(=O)O)c(O)c(S(=O)(=O)O)c1 [5-Amino-3-sulfosalicylic acid-Na2] | 87% | 0% | 26% | 
Nc1ncnc2nc[nH]c12 [Adenine] | 100% | 52% | 14% | solubility [2]: 840 µg/mL (≈ 6.22 mM)
Nc1ncnc2c1ncn2[C@@H]1O[C@H](COP(=O)(O)O)[C@@H](O)[C@H]1O [Adenosine-5'-monophosphoric acid-Na2] | 80% | 8% | 6% | 
Nc1ccccc1C(=O)O [Anthranilic acid(o-Aminobenzoic acid), o-Aminobenzoic acid] | 99% | 48% | 84% | 
Nc1ccn([C@@H]2O[C@H](COP(=O)(O)O)[C@@H](O)[C@H]2O)c(=O)n1 [Cytidine-5'-monophosphoric acid-Na2] | 86% | 88% | 3% | 
Nc1cc[nH]c(=O)n1 [Cytosine] | 100% | 98% | 95% | solubility [2]: 4000 µg/mL (≈ 36 mM)
Nc1nc2nc[nH]c2c(=O)[nH]1 [Guanine] | 73% | 62% | 11% | 
O=c1[nH]cnc2nc[nH]c12 [Hypoxanthine] | 100% | 65% | 6% | 
O=C(O)c1ccccc1O [Salicylic acid] | 98% | 74% | 94% | 
O=c1cc[nH]c(=O)[nH]1 [Uracil] | 90% | 45% | 42% | solubility [2]: 2000 µg/mL (≈ 17.8 mM)
O=c1ccn([C@@H]2O[C@H](COP(=O)(O)O)[C@@H](O)[C@H]2O)c(=O)[nH]1 [Uridine-5'-monophosphoric acid-Na2] | 70% | 55% | 0% | 
Nc1ccc(C(=O)O)cc1 [p-Aminobenzoic acid] | 91% | 100% | 100% | ultraviolet absorption of known agents (in words) [3]: insufficient absorption in the ultraviolet portion of the spectrum
Adenosine-5'-mono-phosphoric acid-(Na-tryptophane)2 [No. 5] |  |  |  | UV-spectrum λmax [4]: 220 mμ; mol.Ext.coeff. ε ([4]; c=0.005, d-l): 320000±4%; Extinction coefficients E250/E260 ([4]; c=0.005, d-l, ratio): 0.76; Extinction coefficients E280/E260 ([4]; c=0.005, d-l, ratio): 0.67; Extinction coefficients E290/E260 ([4]; c=0.005, d-l, ratio): 0.33; pH [5]: 7.0
Cytidine-5'-monophosphoric acid-(o-aminobenzoic acid)2 Na2 | 98% | 79% | 55.5% | 
